Assays:
[1] = molecular target: T1, Ubiquitin carboxyl-terminal hydrolase 28 (Homo sapiens, UniProt Q96RU2); assay: Biochemical Assay
T1 sequence (Q96RU2 whole entry): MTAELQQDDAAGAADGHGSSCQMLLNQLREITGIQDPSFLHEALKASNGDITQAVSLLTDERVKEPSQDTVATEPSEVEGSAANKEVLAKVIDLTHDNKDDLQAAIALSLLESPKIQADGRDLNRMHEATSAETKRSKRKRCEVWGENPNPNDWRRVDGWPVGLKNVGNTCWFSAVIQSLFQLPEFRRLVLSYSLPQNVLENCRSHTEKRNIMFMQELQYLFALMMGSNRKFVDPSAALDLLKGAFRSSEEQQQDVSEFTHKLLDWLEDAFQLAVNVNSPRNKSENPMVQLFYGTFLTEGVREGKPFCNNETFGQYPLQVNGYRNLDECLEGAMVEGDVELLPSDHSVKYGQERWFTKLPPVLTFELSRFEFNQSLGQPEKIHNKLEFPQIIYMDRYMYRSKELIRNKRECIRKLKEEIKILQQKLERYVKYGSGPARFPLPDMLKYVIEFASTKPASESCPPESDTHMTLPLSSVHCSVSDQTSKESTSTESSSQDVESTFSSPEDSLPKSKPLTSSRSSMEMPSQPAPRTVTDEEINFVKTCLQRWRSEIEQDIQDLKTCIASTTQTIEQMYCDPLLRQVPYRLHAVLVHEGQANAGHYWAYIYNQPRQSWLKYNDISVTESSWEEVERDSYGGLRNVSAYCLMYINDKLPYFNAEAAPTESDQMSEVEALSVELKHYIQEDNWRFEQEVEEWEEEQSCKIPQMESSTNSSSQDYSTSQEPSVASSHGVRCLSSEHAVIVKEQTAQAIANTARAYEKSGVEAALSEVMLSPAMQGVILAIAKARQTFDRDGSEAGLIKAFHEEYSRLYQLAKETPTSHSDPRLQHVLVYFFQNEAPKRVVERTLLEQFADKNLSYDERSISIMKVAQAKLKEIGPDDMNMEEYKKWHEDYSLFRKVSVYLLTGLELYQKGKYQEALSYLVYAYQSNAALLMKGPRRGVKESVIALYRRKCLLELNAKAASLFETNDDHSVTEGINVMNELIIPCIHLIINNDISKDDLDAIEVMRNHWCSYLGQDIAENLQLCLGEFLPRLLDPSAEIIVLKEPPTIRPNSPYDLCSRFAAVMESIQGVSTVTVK
Procedure: USP28: The assay was performed in a final volume of 20 uL in assay buffer containing 20 mM Tris-HCl (pH 8.0, (1M Tris-HCl, pH 8.0 solution; Corning 46-031-CM)), 2 mM CaCl2 (1M Calcium Chloride solution; Sigma #21114) 2 mM BME (2-Mercaptoethanol; Sigma 63689-25ML -F), 0.01% Prionex (0.22 uM filtered, Sigma #G-0411), and 0.01% Triton X-100. Stock compound solutions were stored at […] as 10 mM in DMSO. Up to 1 month prior to the assay, 2 mM test compounds were pre-dispensed into assay plates (Black, low volume; Corning #3820) and […] Prestamped assay plates were allowed to come to room temperature on the day of the assay. For the screen, 100 nL of 2 mM was pre-dispensed for a final screening concentration of 10 uM (DMSO(fc)=0.5%). […] Plates were incubated stacked for 90 minutes at room temperature before fluorescence was read on the Envision (Excitation at 485 nm and Emission at 535 nm; Perkin Elmer) or on the PheraSTAR (Excitation at 485 nm and Emission at 535 nm; BMG Labtech).

[2] = molecular target: T2, Ubiquitin carboxyl-terminal hydrolase 25 (Homo sapiens, UniProt Q9UHP3); assay: Biochemical Assay
T2 sequence (Q9UHP3 whole entry): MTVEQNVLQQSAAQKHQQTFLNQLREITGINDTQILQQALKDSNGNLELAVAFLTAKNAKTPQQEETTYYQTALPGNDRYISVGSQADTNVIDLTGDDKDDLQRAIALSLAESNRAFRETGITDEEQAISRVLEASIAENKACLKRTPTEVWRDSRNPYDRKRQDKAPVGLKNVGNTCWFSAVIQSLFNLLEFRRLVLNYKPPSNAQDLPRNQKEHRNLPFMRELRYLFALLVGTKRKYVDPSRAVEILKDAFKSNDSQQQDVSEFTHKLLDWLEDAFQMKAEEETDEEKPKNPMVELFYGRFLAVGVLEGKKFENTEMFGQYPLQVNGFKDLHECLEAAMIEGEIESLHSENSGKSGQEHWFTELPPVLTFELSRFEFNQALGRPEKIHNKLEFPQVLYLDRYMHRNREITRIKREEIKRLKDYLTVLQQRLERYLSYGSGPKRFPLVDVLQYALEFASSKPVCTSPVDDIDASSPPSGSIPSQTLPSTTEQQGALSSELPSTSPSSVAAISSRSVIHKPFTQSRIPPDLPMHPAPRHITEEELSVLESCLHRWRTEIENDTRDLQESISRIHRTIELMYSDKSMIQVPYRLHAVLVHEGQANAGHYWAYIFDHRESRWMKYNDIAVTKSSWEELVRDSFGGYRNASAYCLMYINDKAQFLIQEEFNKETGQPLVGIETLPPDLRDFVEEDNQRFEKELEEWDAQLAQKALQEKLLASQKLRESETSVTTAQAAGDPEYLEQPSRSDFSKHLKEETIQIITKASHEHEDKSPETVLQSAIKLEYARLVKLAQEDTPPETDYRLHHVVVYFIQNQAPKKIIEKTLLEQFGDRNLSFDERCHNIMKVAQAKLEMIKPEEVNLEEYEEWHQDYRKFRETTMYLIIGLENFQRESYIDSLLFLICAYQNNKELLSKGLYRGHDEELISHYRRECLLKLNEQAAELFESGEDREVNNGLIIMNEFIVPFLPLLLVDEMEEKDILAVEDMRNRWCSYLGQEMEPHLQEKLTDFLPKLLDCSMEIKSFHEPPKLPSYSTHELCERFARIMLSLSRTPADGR
Procedure: USP25: The assay was performed in a final volume of 9 uL in assay buffer containing 20 mM Tris-HCl (pH 8.0, (1M Tris-HC1, pH 8.0 solution; Corning 46-031-CM)), 3 mM BME (2-Mercaptoethanol; Sigma 63689-25ML-F), 0.03% BGG (0.22 uM filtered, Sigma, G7516-25G), and 0.01% Triton X-100 (Sigma, T9284-10L). Nanoliter quantities of 10-point, 3-fold serial dilution in DMSO was pre-dispensed into 1536 assay plates (Corning, #3724BC) for a final test concentration of 25 uM to 1.3 nM, top to lowest dose, respectively. Enzyme USP25, construct USP25-His6, (Boston Biochem E-546). Concentration and incubation times were optimized for the maximal signal-to-background while maintaining initial velocity conditions at a fixed substrate concentration. The final concentration of the enzyme in the assay was 75 pM. Final substrate (Ub -Rh110; Ubiquitin-Rhodamine 110, R&D Systems #U-555) concentration was 25 nM with [Ub -Rh110] Km. 3 uL of 2x enzyme was added to assay plates (pre-stamped with compound) preincubated with USP25 for 30 minutes and then 3 uL of 2x Ub-Rh110 was added to assay plates. Plates were incubated for 45 minutes at room temperature before addition of 3 uL of stop solution (final concentration of 10 mM citric acid (Sigma, 251275-500G)). Fluorescence was read on the Envision (Excitation at 485 nm and Emission at 535 nm; Perkin Elmer) or on the PheraSTAR (Excitation at 485 nm and Emission at 535 nm; BMG Labtech).

Row | IC50 [1] | IC50 [2] | SMILES
1 | < 200 nM | in the range around 1100 nM | Nc1c(C(=O)NCCc2ccc([C@H]3CCNC3)cc2)sc2ncccc12 [US10913753, Compound I-180]
2 | < 200 nM | in the range around 1100 nM | Nc1c(C(=O)NCCc2ccc(C3CCNC3)cc2)sc2ncccc12 (stereo unspecified) [US10913753, Compound I-181]
3 | in the range around 1100 nM | in the range around 6000 nM | CN[C@H]1CN(c2nc(F)c(CCNC(=O)c3sc4nc(C)ccc4c3N)cc2F)CC1C (stereo partly specified) [US10913753, Compound I-214]
